Values joined by “and” are separate entries in the source; they are usually repeats but may differ in a detail not shown here. Equal values may be shown once.
Test: CIA study: animal body weight
Conditions: for Average animal body weight / Average animal body weight percent change: CIA; for Animal body weight percent change (%): individual animals

## Cn1cc(-c2ccccc2)c(-c2cn(C)c(=O)c3[nH]c(-c4cnn(C(F)(F)F)c4)cc23)cc1=O [Compound A, 6-methyl-4-(1-methyl-2-oxo-5-phenyl-1,2-dihydropyridin-4-yl)-2-(1-(trifluoromethyl)-1H-pyrazol-4-yl)-1,6-dihydro-7H-pyrrolo[2,3-c]pyridin-7-one]
CIA + Compound A 1 mg/kg, Day 8, 1 mg/kg
  Animal body weight: 172 g and 157 g and 170 g and 161 g and 171 g and 165 g
CIA + Compound A 1 mg/kg, Day 9, 1 mg/kg
  Animal body weight: 180 g and 156 g and 175 g and 162 g and 173 g and 170 g and 169 g
CIA + Compound A 1 mg/kg, Day 10, 1 mg/kg
  Animal body weight: 178 g and 155 g and 166 g and 170 g and 176 g
CIA + Compound A 1 mg/kg, Day 11, 1 mg/kg
  Animal body weight: 180 g and 157 g and 178 g and 162 g and 170 g and 175 g and 167 g
CIA + Compound A 1 mg/kg, Day 12, 1 mg/kg
  Animal body weight: 182 g and 158 g and 176 g and 162 g and 174 g and 177 g and 165 g
CIA + Compound A 1 mg/kg, Day 13, 1 mg/kg
  Animal body weight: 180 g and 158 g and 179 g and 160 g and 174 g and 172 g and 165 g
CIA + Compound A 1 mg/kg, Day 14, 1 mg/kg
  Animal body weight: 178 g and 159 g and 179 g and 155 g and 175 g and 170 g and 168 g
CIA + Compound A 3 mg/kg, Day 8, 3 mg/kg
  Animal body weight: 160 g and 174 g and 173 g and 169 g and 163 g and 165 g and 167 g and 157 g
CIA + Compound A 3 mg/kg, Day 9, 3 mg/kg
  Animal body weight: 162 g and 171 g and 178 g and 169 g and 160 g and 163 g and 170 g
CIA + Compound A 3 mg/kg, Day 10, 3 mg/kg
  Animal body weight: 162 g and 172 g and 177 g and 170 g and 168 g and 167 g
CIA + Compound A 3 mg/kg, Day 11, 3 mg/kg
  Animal body weight: 160 g and 172 g and 178 g and 169 g and 165 g
CIA + Compound A 3 mg/kg, Day 12, 3 mg/kg
  Animal body weight: 158 g and 176 g and 170 g and 167 g and 169 g and 172 g and 165 g
CIA + Compound A 3 mg/kg, Day 13, 3 mg/kg
  Animal body weight: 162 g and 175 g and 166 g and 173 g and 157 g and 168 g and 171 g
CIA + Compound A 3 mg/kg, Day 14, 3 mg/kg
  Animal body weight: 163 g and 177 g and 170 g and 175 g and 156 g and 167 g and 158 g
CIA + Compound A 10 mg/kg, Day 8, 10 mg/kg
  Animal body weight: 162 g
CIA + Compound A 10 mg/kg, Day 9, 10 mg/kg
  Animal body weight: 164 g
CIA + Compound A 10 mg/kg, Day 10, 10 mg/kg
  Animal body weight: 165 g
CIA + Compound A 10 mg/kg, Day 11, 10 mg/kg
  Animal body weight: 164 g
CIA + Compound A 10 mg/kg, Day 12, 10 mg/kg
  Animal body weight: 163 g
CIA + Compound A 10 mg/kg, Day 13, 10 mg/kg
  Animal body weight: 163 g
CIA + Compound A 10 mg/kg, Day 14, 10 mg/kg
  Animal body weight: 164 g
Day 0, 1 mg/kg
  Average animal body weight: 163
  Average animal body weight percent change: 0.00%
Day 0, 3 mg/kg
  Average animal body weight: 166
  Average animal body weight percent change: 0.00%
Day 0, 10 mg/kg
  Average animal body weight: 162
  Average animal body weight percent change: 0.00%
Day 1, 1 mg/kg
  Average animal body weight: 166
  Average animal body weight percent change: 1.55%
Day 1, 3 mg/kg
  Average animal body weight: 165
  Average animal body weight percent change: −0.19%
Day 1, 10 mg/kg
  Average animal body weight: 164
  Average animal body weight percent change: 1.12%
Day 2, 1 mg/kg
  Average animal body weight: 163
  Average animal body weight percent change: −0.07%
Day 2, 3 mg/kg
  Average animal body weight: 165
  Average animal body weight percent change: −0.57%
Day 2, 10 mg/kg
  Average animal body weight: 163
  Average animal body weight percent change: 0.71%
Day 3, 1 mg/kg
  Average animal body weight: 165
  Average animal body weight percent change: 0.96%
Day 3, 3 mg/kg
  Average animal body weight: 163
  Average animal body weight percent change: −1.45%
Day 3, 10 mg/kg
  Average animal body weight: 163
  Average animal body weight percent change: 0.63%
Day 4, 1 mg/kg
  Average animal body weight: 165
  Average animal body weight percent change: 1.26%
Day 4, 3 mg/kg
  Average animal body weight: 165
  Average animal body weight percent change: −0.35%
Day 4, 10 mg/kg
  Average animal body weight: 163
  Average animal body weight percent change: 0.72%
Day 5, 1 mg/kg
  Average animal body weight: 169
  Average animal body weight percent change: 3.76%
Day 5, 3 mg/kg
  Average animal body weight: 167
  Average animal body weight percent change: 0.70%
Day 5, 10 mg/kg
  Average animal body weight: 166
  Average animal body weight percent change: 2.60%
Day 6, 1 mg/kg
  Average animal body weight: 170
  Average animal body weight percent change: 4.33%
Day 6, 3 mg/kg
  Average animal body weight: 166
  Average animal body weight percent change: 0.43%
Day 6, 10 mg/kg
  Average animal body weight: 166
  Average animal body weight percent change: 2.04%
Day 7, 1 mg/kg
  Average animal body weight: 170
  Average animal body weight percent change: 3.94%
Day 7, 3 mg/kg
  Average animal body weight: 164
  Average animal body weight percent change: −0.93%
Day 7, 10 mg/kg
  Average animal body weight: 164
  Average animal body weight percent change: 0.89%
Day 8, 1 mg/kg
  Average animal body weight: 167
  Average animal body weight percent change: 2.26%
Day 8, 3 mg/kg
  Average animal body weight: 166
  Average animal body weight percent change: 0.36%
Day 8, 10 mg/kg
  Average animal body weight: 162
  Average animal body weight percent change: −0.31%
Day 8, Group 5 (CIA + Compound A 1 mg/kg), 1 mg/kg
  Animal body weight percent change (%): 4.24% and −4.27% and 4.94% and 5.92% and 1.78% and 2.40% and 1.23%
Day 8, Group 6 (CIA + Compound A 3 mg/kg), 3 mg/kg
  Animal body weight percent change (%): −4.76% and 1.75% and −1.14% and 1.20% and −2.40% and 1.23% and 6.37% and 0.64%
Day 9, 1 mg/kg
  Average animal body weight: 169
  Average animal body weight percent change: 3.79%
Day 9, 3 mg/kg
  Average animal body weight: 167
  Average animal body weight percent change: 0.75%
Day 9, 10 mg/kg
  Average animal body weight: 163
  Average animal body weight percent change: 0.36%

From patent publication US20260217701A1, “SELECTIVE BET INHIBITORS AND USES THEREOF” (Tay Therapeutics Limited, priority 2022, published 2026)
